# Laboratory results from patent publication US6908908B2, “Biologically active 4H-benzo [1,4] oxazin-3-ones” (Ortho-McNeil Pharmaceutical, Inc., priority 2000, dated 2005).
# Molecular target: T1, PPAR γ (Homo sapiens, UniProt P37231)
# T1 construct: Following the challenge of the preadipocytes, cells may be lysed with lysis buffer; endogenous in cells; host or cells: preadipocytes
# T1 sequence (P37231 1-505): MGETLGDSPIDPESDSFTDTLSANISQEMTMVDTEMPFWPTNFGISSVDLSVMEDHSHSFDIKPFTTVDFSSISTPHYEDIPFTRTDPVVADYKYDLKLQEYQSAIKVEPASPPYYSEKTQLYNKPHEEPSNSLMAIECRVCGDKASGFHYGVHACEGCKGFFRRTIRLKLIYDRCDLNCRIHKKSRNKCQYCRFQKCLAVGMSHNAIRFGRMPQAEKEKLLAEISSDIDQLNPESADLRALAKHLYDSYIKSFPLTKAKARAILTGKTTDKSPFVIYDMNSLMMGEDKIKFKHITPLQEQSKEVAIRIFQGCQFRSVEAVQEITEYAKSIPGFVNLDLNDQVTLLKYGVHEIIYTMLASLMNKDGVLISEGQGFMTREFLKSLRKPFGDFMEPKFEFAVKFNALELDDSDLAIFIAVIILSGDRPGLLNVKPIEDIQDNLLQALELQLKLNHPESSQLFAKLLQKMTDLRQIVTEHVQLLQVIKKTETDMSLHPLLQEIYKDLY
# Experiment: aP2 Assay for Agonist (induction of aP2 mRNA production); for Agonist Intrinsic Activity: test concentration or dose not given here
# Assay type: cell-based
# Conditions: Table 1; fold increase over vehicle in induction of aP2 mRNA production
row,Structure (SMILES),Agonist Intrinsic Activity
1,O=C([O-])Cc1cccc(OCCC2Oc3ccccc3N(Cc3cccc(C(F)(F)F)c3)C2=O)c1.[Na+] (stereo not drawn) [Compound 34],10.4
2,CCCCCCCCCN1C(=O)C(CCOc2ccccc2CC(=O)O)Oc2ccccc21 (stereo not drawn) [Compound 55],7.1
3,CCCCCCCCN1C(=O)C(CCOc2ccccc2CC(=O)OC)Oc2ccccc21 (stereo not drawn) [Compound 52],1.3
4,O=C([O-])CCCc1ccccc1OCCC1Oc2ccccc2N(Cc2cccc(C(F)(F)F)c2)C1=O.[Na+] (stereo not drawn) [Compound 32],8.2
5,O=C(O)Cc1ccccc1OCCC1Oc2ccccc2N(CCCC2CCCC2)C1=O (stereo not drawn) [Compound 70],57.9
6,CCCCCCCCCN1C(=O)C(CCOc2ccccc2CC(=O)OC)Oc2ccccc21 (stereo not drawn) [Compound 54],0.9
7,COCCCCN1C(=O)C(CCOc2ccccc2C(F)(F)F)Oc2ccccc21 (stereo not drawn) [Compound 18],0.3
8,COC(=O)Cc1cccc(OCCC2Oc3ccccc3N(Cc3cccc(C(F)(F)F)c3)C2=O)c1 (stereo not drawn) [Compound 33],0.8
9,COC(=O)c1ccccc1OCCC1Oc2ccccc2N(Cc2cccc(C)c2)C1=O (stereo not drawn) [Compound 3],0.6
10,CCCCCCCN1C(=O)C(CCOc2ccccc2CC(=O)OC)Oc2ccccc21 (stereo not drawn) [Compound 50],6.2
11,"CS(=O)(=O)NCCCCCCN1C(=O)C(CCOc2ccccc2CC(=O)O)Oc2ccccc21 (stereo not drawn) [Compound 126, Benzeneacetic acid, 2-[2-[3,4-dihydro-3-oxo-4-(6-methanesulfonamidohexyl)-2H-1,4-benzoxazin-2-yl]ethoxy]-]",12.96
12,CNC(=O)CCCN1C(=O)C(CCOc2ccccc2CC(=O)O)Oc2ccccc21 (stereo not drawn) [Compound 124],4.00
13,CCCCCCCCCCN1C(=O)C(CCOc2ccccc2C(F)(F)F)Oc2ccccc21 (stereo not drawn) [Compound 17],1.1
14,CON=C(C)CCCCN1C(=O)C(CCOc2ccccc2CC(=O)O)Oc2ccccc21 (stereo not drawn) [Compound 80],2.8
15,CCCSCCN1C(=O)C(CCOc2ccccc2C(F)(F)F)Oc2ccccc21 (stereo not drawn) [Compound 21],1.9
16,"O=C([O-])c1ccccc1OCCC1Oc2ccccc2N(Cc2cccc(C(F)(F)F)c2)C1=O.[Na+] (stereo not drawn) [Compound 26, Benzoic acid, 2-[2-[3,4-dihydro-3-oxo-4-[[3-(trifluoromethyl)phenyl]methyl]-2H-1,4-benzoxazin-2-yl]ethoxy]-, monosodium salt]",3.1
17,CCOCCCN1C(=O)C(CCOc2ccccc2CC(=O)O)Oc2ccccc21 (stereo not drawn) [Compound 115],40.9
18,CCCCCCCN1C(=O)C(CCOc2ccccc2CC(=O)O)Oc2ccccc21 (stereo not drawn) [Compound 51],28.6
19,O=C(O)CCCCN1C(=O)C(CCOc2ccccc2CC(=O)O)Oc2ccccc21 (stereo not drawn) [Compound 60],1.5
20,COC(=O)c1ccccc1OCCC1Oc2ccccc2N(Cc2ccc(C)cc2)C1=O (stereo not drawn) [Compound 1],0.9
21,COC(=O)c1ccccc1OCCC1Oc2ccccc2N(Cc2ccc(Cl)cc2)C1=O (stereo not drawn) [Compound 5],0.7
22,COC(=O)Cc1ccccc1OCCC1Oc2ccccc2N(Cc2ccc(C(F)(F)F)cc2)C1=O (stereo not drawn) [Compound 37],1.2
23,O=C(O)Cc1ccccc1OCCC1Oc2ccccc2N(CCO)C1=O (stereo not drawn) [Compound 25],3.5

row,Structure (SMILES),Agonist Intrinsic Activity
1,CCCOCCN1C(=O)C(CCOc2ccccc2CC(=O)O)Oc2ccccc21 (stereo not drawn) [Compound 117],45.9
2,COC(=O)Cc1ccccc1OCCC1Oc2ccccc2N(CCC2CCCCC2)C1=O (stereo not drawn) [Compound 65],0.8
3,NC(=O)CCCCN1C(=O)C(CCOc2ccccc2CC(=O)O)Oc2ccccc21 (stereo not drawn) [Compound 62],1.5
4,O=C(O)Cc1ccccc1OCCC1Oc2ccccc2N(c2ccc(Cl)c(Cl)c2)C1=O (stereo not drawn) [Compound 119],22.8
5,CCCSCCN1C(=O)C(CCOc2ccccc2CC(=O)O)Oc2ccccc21 (stereo not drawn) [Compound 116],4.0
6,O=C([O-])Cc1ccccc1OCCC1Oc2ccccc2N(Cc2cccc(C(F)(F)F)c2)C1=O.[Na+] (stereo not drawn) [Compound 28],21.5
7,"O=C(O)Cc1ccccc1OCCC1Oc2ccccc2N(CCCCCCF)C1=O (single isomer, unassigned) [Compound 93]",53.1
8,"CCCCCCN1C(=O)C(CCOc2ccccc2C(=O)C(=O)O)Oc2ccccc21 (stereo not drawn) [Compound 13, Benzeneacetic acid, 2-[2-(4-hexyl-3,4-dihydro-3-oxo-2H-1,4-benzoxazin-2-yl)ethoxy]-a-oxo-]",2.6
9,O=C(O)Cc1ccccc1OCCC1Oc2ccccc2N(CC(=O)O)C1=O (stereo not drawn) [Compound 46],2
10,"O=C(O)Cc1ccccc1OCCC1Oc2ccccc2N(CCCCCCF)C1=O (stereo not drawn) [Compound 91, Benzeneacetic acid, 2-[2-[4-(6-fluorohexyl)-3,4-dihydro-3-oxo-2H-1,4-benzoxazin-2-yl]ethoxy]-]",64.9
11,CCCOCCN1C(=O)C(CCOc2ccccc2C(F)(F)F)Oc2ccccc21 (stereo not drawn) [Compound 20],1.2
12,O=C([O-])CCc1ccccc1OCCC1Oc2ccccc2N(Cc2cccc(C(F)(F)F)c2)C1=O.[Na+] (stereo not drawn) [Compound 30],5.6
13,CC(=O)NC(C)CCCCN1C(=O)C(CCOc2ccccc2CC(=O)O)Oc2ccccc21 (stereo not drawn) [Compound 85],24
14,O=C1C(CCOc2ccccc2C(F)(F)F)Oc2ccccc2N1Cc1cccc(C(F)(F)F)c1 (stereo not drawn) [Compound 10],0.8
15,COC(=O)c1ccccc1OCCC1Oc2ccccc2N(Cc2ccccc2)C1=O (stereo not drawn) [Compound 4],1.0
16,CCOCCCN1C(=O)C(CCOc2ccccc2C(F)(F)F)Oc2ccccc21 (stereo not drawn) [Compound 19],1.4
17,O=C(O)Cc1ccccc1OCCC1Oc2ccccc2N(CCO)C1=O (stereo not drawn) [Compound 48],8
18,CC(C)(C)CCCCN1C(=O)C(CCOc2ccccc2CC(=O)O)Oc2ccccc21 (stereo not drawn) [Compound 74],22.0
19,CC(C)(O)CCCCN1C(=O)C(CCOc2ccccc2CC(=O)O)Oc2ccccc21 (stereo not drawn) [Compound 84],3.5
20,COC(=O)Cc1ccccc1OCCC1Oc2ccccc2N(c2ccc(Cl)c(Cl)c2)C1=O (stereo not drawn) [Compound 118],0.9
21,O=C(O)Cc1ccccc1OCCC1Oc2ccccc2N(Cc2cc(C(F)(F)F)cc(C(F)(F)F)c2)C1=O (stereo not drawn) [Compound 40],6.7
22,O=C(O)Cc1cccc(OCCC2Oc3ccccc3N(Cc3cc(C(F)(F)F)cc(C(F)(F)F)c3)C2=O)c1 (stereo not drawn) [Compound 44],6.8
23,COC(=O)CCc1ccccc1OCCC1Oc2ccccc2N(Cc2cccc(C(F)(F)F)c2)C1=O (stereo not drawn) [Compound 29],0.8

# Same assay, conditions: Table 2; fold increase over vehicle in induction of aP2 mRNA production
row,Structure (SMILES),Agonist Intrinsic Activity
1,"CCCCCCN1C(=O)C(C)(CCOc2ccccc2CC(=O)O)Oc2ccccc21 (stereo not drawn) [Compound 128, Benzeneacetic acid, 2-[2-(4-hexyl-3,4-dihydro-2-methyl-3-oxo-2H-1,4-benzoxazin-2-yl)ethoxy]-]",2.5

# Same assay, conditions: Table 3 (stereoisomers); fold increase over vehicle in induction of aP2 mRNA production
row,Structure (SMILES),PPAR γ Agonist Intrinsic Activity
1,CCCCCCN1C(=O)[C@](C)(CCOc2ccccc2CC(=O)O)Oc2ccccc21 [Compound 130],91.3
